Reference: the NIST ThermoML archive (doi:10.1021/je060271a)
Where “and” joins values, the source holds several entries; their conditions need not be identical. Identical values can stand only once.

Conditions: Liquid, Vibrating tube method

CCCCC(=O)OCC(COC(=O)CCCC)(COC(=O)CCCC)COC(=O)CCCC [pentaerythritol tetrapentanoate]
Conditions	mass density
343.15 K, 33864 kPa	1002.5 kg/m3
343.15 K, 33916 kPa	1002.5 kg/m3
343.15 K, 33961 kPa	1002.5 kg/m3
343.15 K, 34007 kPa	1002.5 kg/m3
343.15 K, 34062 kPa	1002.6 kg/m3
343.15 K, 34111 kPa	1002.5 kg/m3
343.15 K, 34161 kPa	1002.6 kg/m3
343.15 K, 34218 kPa	1002.7 kg/m3
343.15 K, 34251 kPa	1002.6 kg/m3
343.15 K, 34275 kPa	1002.8 kg/m3
343.15 K, 34304 kPa	1002.7 kg/m3
343.15 K, 34328 kPa	1002.8 kg/m3
343.15 K, 34353 kPa	1002.7 kg/m3
343.15 K, 34384 kPa	1002.7 kg/m3
343.15 K, 34410 kPa	1002.8 kg/m3
343.15 K, 34438 kPa	1002.7 kg/m3
343.15 K, 34472 kPa	1002.8 kg/m3
343.15 K, 34497 kPa	1002.9 kg/m3
343.15 K, 34503 kPa	1002.9 kg/m3
343.15 K, 34504 kPa	1002.8 kg/m3
343.15 K, 34505 kPa	1002.9 kg/m3
343.15 K, 34506 kPa	1002.8 kg/m3
343.15 K, 34508 kPa	1002.8 kg/m3
343.15 K, 34509 kPa	1002.8 kg/m3
343.15 K, 34510 kPa	1002.9 kg/m3 and 1002.8 kg/m3
343.15 K, 34512 kPa	1002.8 kg/m3
343.15 K, 34514 kPa	1002.8 kg/m3
343.16 K, 412.1 kPa	978.6 kg/m3
343.16 K, 441.3 kPa	978.8 kg/m3
343.16 K, 470.3 kPa	978.8 kg/m3
343.16 K, 495.2 kPa	978.9 kg/m3
343.16 K, 522.1 kPa	978.8 kg/m3
343.16 K, 556.2 kPa	979 kg/m3
343.16 K, 586.3 kPa	978.8 kg/m3
343.16 K, 617.4 kPa	979 kg/m3
343.16 K, 654 kPa	979 kg/m3
343.16 K, 685.5 kPa	979 kg/m3
343.16 K, 717.1 kPa	979 kg/m3
343.16 K, 781.4 kPa	979 kg/m3
343.16 K, 807.8 kPa	979.1 kg/m3
343.16 K, 835.6 kPa	979.2 kg/m3
343.16 K, 864.6 kPa	979.2 kg/m3
343.16 K, 901.1 kPa	979.2 kg/m3
343.16 K, 933.9 kPa	979.2 kg/m3
343.16 K, 969.2 kPa	979.2 kg/m3
343.16 K, 1013.1 kPa	979.1 kg/m3
343.16 K, 1049.6 kPa	979.2 kg/m3
343.16 K, 1077.9 kPa	979.4 kg/m3
343.16 K, 1107.4 kPa	979.3 kg/m3
343.16 K, 1133.1 kPa	979.3 kg/m3
343.16 K, 1159.9 kPa	979.4 kg/m3
343.16 K, 1187.6 kPa	979.4 kg/m3
343.16 K, 1223.2 kPa	979.4 kg/m3
343.16 K, 1254.5 kPa	979.4 kg/m3
343.16 K, 1286.1 kPa	979.4 kg/m3
343.16 K, 1325.9 kPa	979.4 kg/m3
343.16 K, 1361.3 kPa	979.5 kg/m3
343.16 K, 1398.1 kPa	979.6 kg/m3
343.16 K, 1437 kPa	979.8 kg/m3
343.16 K, 1485.1 kPa	979.6 kg/m3
343.16 K, 1528.1 kPa	979.7 kg/m3
343.16 K, 1574.3 kPa	979.7 kg/m3
343.16 K, 1633.5 kPa	979.6 kg/m3
343.16 K, 2223.1 kPa	980.2 kg/m3
343.16 K, 2283.6 kPa	980.2 kg/m3
343.16 K, 2321.1 kPa	980.2 kg/m3
343.16 K, 2385.5 kPa	980.4 kg/m3
343.16 K, 2425 kPa	980.4 kg/m3
343.16 K, 2459.5 kPa	980.4 kg/m3
343.16 K, 2536.9 kPa	980.4 kg/m3
343.16 K, 2611.6 kPa	980.6 kg/m3
343.16 K, 2873.3 kPa	980.7 kg/m3
343.16 K, 2917.7 kPa	980.7 kg/m3
343.16 K, 3019.5 kPa	980.9 kg/m3
343.16 K, 3175.8 kPa	980.9 kg/m3
343.16 K, 3224.4 kPa	981.1 kg/m3
343.16 K, 3294.8 kPa	981.1 kg/m3
343.16 K, 3352.1 kPa	981.2 kg/m3
343.16 K, 3426.6 kPa	981.2 kg/m3
343.16 K, 3497.5 kPa	981.3 kg/m3
